{
  "source": "PubChem BioAssay (NCI)",
  "assay_in_all_cases": "NCI anticancer screen, dose series, 48 h",
  "key": {"UO-31 renal": {"system": "UO-31 renal"}, "M14 melanoma": {"system": "M14 melanoma"}, "SW-620 colon": {"system": "SW-620 colon"}, "786-0 renal": {"system": "786-0 renal"}, "HCC-2998 colon": {"system": "HCC-2998 colon"}, "SR leukemia": {"system": "SR leukemia"}, "MCF7 breast": {"system": "MCF7 breast"}, "UACC-257 melanoma": {"system": "UACC-257 melanoma"}, "UACC-62 melanoma": {"system": "UACC-62 melanoma"}, "K-562 leukemia": {"system": "K-562 leukemia"}},
  "note": "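Values below derive from 48-hour exposures of cells grown in 96-well plates, with endpoints linearly interpolated between the two concentrations bracketing the appropriate inhibition level. GI50: concentration for 50% inhibition of growth. TGI marks complete inhibition of growth.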",
  "data": [
    {"smiles": "Cc1ccc2cnc(N)c(C#Cc3cc(C(=O)Nc4ccc(CN5CCN(C)CC5)c(C(F)(F)F)c4)cnc3C)c2c1", "values": [
      {"measurement": "GI50", "setting": "UO-31 renal", "result": 621, "unit": "nM"},
      {"measurement": "TGI", "setting": "UO-31 renal", "result": 1300, "unit": "nM"},
      {"measurement": "GI50", "setting": "M14 melanoma", "result": 334, "unit": "nM"},
      {"measurement": "TGI", "setting": "M14 melanoma", "result": 1160, "unit": "nM"},
      {"measurement": "GI50", "setting": "SW-620 colon", "result": 344, "unit": "nM"},
      {"measurement": "TGI", "setting": "SW-620 colon", "result": 1070, "unit": "nM"},
      {"measurement": "GI50", "setting": "786-0 renal", "result": 809, "unit": "nM"},
      {"measurement": "TGI", "setting": "786-0 renal", "result": 1680, "unit": "nM"},
      {"measurement": "GI50", "setting": "HCC-2998 colon", "result": 1590, "unit": "nM"},
      {"measurement": "TGI", "setting": "HCC-2998 colon", "result": 8460, "unit": "nM"},
      {"measurement": "GI50", "setting": "SR leukemia", "result": 390, "unit": "nM"},
      {"measurement": "TGI", "setting": "SR leukemia", "result": 1610, "unit": "nM"},
      {"measurement": "GI50", "setting": "MCF7 breast", "result": 498, "unit": "nM"},
      {"measurement": "TGI", "setting": "MCF7 breast", "result": 1490, "unit": "nM"},
      {"measurement": "GI50", "setting": "UACC-257 melanoma", "result": 651, "unit": "nM"},
      {"measurement": "TGI", "setting": "UACC-257 melanoma", "result": 1480, "unit": "nM"},
      {"measurement": "GI50", "setting": "UACC-62 melanoma", "result": 234, "unit": "nM"},
      {"measurement": "TGI", "setting": "UACC-62 melanoma", "result": 1080, "unit": "nM"},
      {"measurement": "GI50", "setting": "K-562 leukemia", "result": 5, "unit": "nM"},
      {"measurement": "TGI", "setting": "K-562 leukemia", "result": 1260, "unit": "nM"}
    ]},
    {"smiles": "CC1=C2C(=C[C@@](C)(CO)[C@@H]2OC(=O)N(C)CCN(C)C(=O)OC(C)(C)C)C(=O)[C@](C)(O)C12CC2", "values": [
      {"measurement": "GI50", "setting": "UO-31 renal", "result": 2170, "unit": "nM"},
      {"measurement": "TGI", "setting": "UO-31 renal", "result": 14900, "unit": "nM"},
      {"measurement": "GI50", "setting": "M14 melanoma", "result": 6360, "unit": "nM"},
      {"measurement": "TGI", "setting": "M14 melanoma", "result": 20800, "unit": "nM"},
      {"measurement": "GI50", "setting": "SW-620 colon", "result": 12800, "unit": "nM"},
      {"measurement": "TGI", "setting": "SW-620 colon", "result": "> 50000", "unit": "nM"},
      {"measurement": "GI50", "setting": "786-0 renal", "result": 11600, "unit": "nM"},
      {"measurement": "TGI", "setting": "786-0 renal", "result": 37800, "unit": "nM"},
      {"measurement": "GI50", "setting": "HCC-2998 colon", "result": 8300, "unit": "nM"},
      {"measurement": "TGI", "setting": "HCC-2998 colon", "result": 26200, "unit": "nM"},
      {"measurement": "GI50", "setting": "SR leukemia", "result": 2390, "unit": "nM"},
      {"measurement": "TGI", "setting": "SR leukemia", "result": "> 50000", "unit": "nM"},
      {"measurement": "GI50", "setting": "MCF7 breast", "result": 3350, "unit": "nM"},
      {"measurement": "TGI", "setting": "MCF7 breast", "result": "> 50000", "unit": "nM"},
      {"measurement": "GI50", "setting": "UACC-257 melanoma", "result": 10100, "unit": "nM"},
      {"measurement": "TGI", "setting": "UACC-257 melanoma", "result": 26300, "unit": "nM"},
      {"measurement": "GI50", "setting": "UACC-62 melanoma", "result": 8330, "unit": "nM"},
      {"measurement": "TGI", "setting": "UACC-62 melanoma", "result": 17800, "unit": "nM"},
      {"measurement": "GI50", "setting": "K-562 leukemia", "result": 21400, "unit": "nM"},
      {"measurement": "TGI", "setting": "K-562 leukemia", "result": "> 50000", "unit": "nM"}
    ]},
    {"smiles": "CCOc1ccccc1CCN=C1NC(=O)/C(=C/c2ccc3ncccc3c2)S1", "values": [
      {"measurement": "GI50", "setting": "UO-31 renal", "result": 1310, "unit": "nM"},
      {"measurement": "TGI", "setting": "UO-31 renal", "result": 15900, "unit": "nM"},
      {"measurement": "GI50", "setting": "M14 melanoma", "result": 2170, "unit": "nM"},
      {"measurement": "TGI", "setting": "M14 melanoma", "result": 10400, "unit": "nM"},
      {"measurement": "GI50", "setting": "SW-620 colon", "result": 712, "unit": "nM"},
      {"measurement": "TGI", "setting": "SW-620 colon", "result": 5280, "unit": "nM"},
      {"measurement": "GI50", "setting": "786-0 renal", "result": 1930, "unit": "nM"},
      {"measurement": "TGI", "setting": "786-0 renal", "result": "> 14300", "unit": "nM"},
      {"measurement": "GI50", "setting": "HCC-2998 colon", "result": 3050, "unit": "nM"},
      {"measurement": "TGI", "setting": "HCC-2998 colon", "result": 11800, "unit": "nM"},
      {"measurement": "GI50", "setting": "SR leukemia", "result": 146, "unit": "nM"},
      {"measurement": "TGI", "setting": "SR leukemia", "result": 3040, "unit": "nM"},
      {"measurement": "GI50", "setting": "MCF7 breast", "result": 792, "unit": "nM"},
      {"measurement": "TGI", "setting": "MCF7 breast", "result": "> 25000", "unit": "nM"},
      {"measurement": "GI50", "setting": "UACC-257 melanoma", "result": 10500, "unit": "nM"},
      {"measurement": "TGI", "setting": "UACC-257 melanoma", "result": "> 22700", "unit": "nM"},
      {"measurement": "GI50", "setting": "UACC-62 melanoma", "result": 1480, "unit": "nM"},
      {"measurement": "TGI", "setting": "UACC-62 melanoma", "result": 10300, "unit": "nM"},
      {"measurement": "GI50", "setting": "K-562 leukemia", "result": 840, "unit": "nM"},
      {"measurement": "TGI", "setting": "K-562 leukemia", "result": 19800, "unit": "nM"}
    ]},
    {"smiles": "O=C(NCC1CC1)c1ccc(-c2cccc(C(=O)NC3CC3)c2)cc1", "values": [
      {"measurement": "GI50", "setting": "UO-31 renal", "result": "> 25000", "unit": "nM"},
      {"measurement": "TGI", "setting": "UO-31 renal", "result": "> 25000", "unit": "nM"},
      {"measurement": "GI50", "setting": "M14 melanoma", "result": "> 25000", "unit": "nM"},
      {"measurement": "TGI", "setting": "M14 melanoma", "result": "> 25000", "unit": "nM"},
      {"measurement": "GI50", "setting": "SW-620 colon", "result": "> 25000", "unit": "nM"},
      {"measurement": "TGI", "setting": "SW-620 colon", "result": "> 25000", "unit": "nM"},
      {"measurement": "GI50", "setting": "786-0 renal", "result": "> 25000", "unit": "nM"},
      {"measurement": "TGI", "setting": "786-0 renal", "result": "> 25000", "unit": "nM"},
      {"measurement": "GI50", "setting": "HCC-2998 colon", "result": "> 25000", "unit": "nM"},
      {"measurement": "TGI", "setting": "HCC-2998 colon", "result": "> 25000", "unit": "nM"},
      {"measurement": "GI50", "setting": "SR leukemia", "result": "> 23300", "unit": "nM"},
      {"measurement": "TGI", "setting": "SR leukemia", "result": "> 25000", "unit": "nM"},
      {"measurement": "GI50", "setting": "MCF7 breast", "result": "> 25000", "unit": "nM"},
      {"measurement": "TGI", "setting": "MCF7 breast", "result": "> 25000", "unit": "nM"},
      {"measurement": "GI50", "setting": "UACC-257 melanoma", "result": "> 25000", "unit": "nM"},
      {"measurement": "TGI", "setting": "UACC-257 melanoma", "result": "> 25000", "unit": "nM"},
      {"measurement": "GI50", "setting": "UACC-62 melanoma", "result": "> 25000", "unit": "nM"},
      {"measurement": "TGI", "setting": "UACC-62 melanoma", "result": "> 25000", "unit": "nM"},
      {"measurement": "GI50", "setting": "K-562 leukemia", "result": "> 25000", "unit": "nM"},
      {"measurement": "TGI", "setting": "K-562 leukemia", "result": "> 25000", "unit": "nM"}
    ]},
    {"smiles": "CCc1c2c(nc3ccc(OCc4ccc(B(O)O)cc4)cc13)-c1cc3c(c(=O)n1C2)COC(=O)[C@]3(O)CC", "values": [
      {"measurement": "GI50", "setting": "UO-31 renal", "result": 31, "unit": "nM"},
      {"measurement": "TGI", "setting": "UO-31 renal", "result": 913, "unit": "nM"},
      {"measurement": "GI50", "setting": "M14 melanoma", "result": "< 15.6", "unit": "nM"},
      {"measurement": "TGI", "setting": "M14 melanoma", "result": 1660, "unit": "nM"},
      {"measurement": "GI50", "setting": "SW-620 colon", "result": 24.7, "unit": "nM"},
      {"measurement": "TGI", "setting": "SW-620 colon", "result": "> 78000", "unit": "nM"},
      {"measurement": "GI50", "setting": "786-0 renal", "result": "< 17.4", "unit": "nM"},
      {"measurement": "TGI", "setting": "786-0 renal", "result": 1800, "unit": "nM"},
      {"measurement": "GI50", "setting": "HCC-2998 colon", "result": 398, "unit": "nM"},
      {"measurement": "TGI", "setting": "HCC-2998 colon", "result": "> 66100", "unit": "nM"},
      {"measurement": "GI50", "setting": "SR leukemia", "result": "< 10", "unit": "nM"},
      {"measurement": "TGI", "setting": "SR leukemia", "result": "> 100000", "unit": "nM"},
      {"measurement": "GI50", "setting": "MCF7 breast", "result": "< 10", "unit": "nM"},
      {"measurement": "GI50", "setting": "UACC-257 melanoma", "result": 94.3, "unit": "nM"},
      {"measurement": "TGI", "setting": "UACC-257 melanoma", "result": 2060, "unit": "nM"},
      {"measurement": "GI50", "setting": "UACC-62 melanoma", "result": "< 10", "unit": "nM"},
      {"measurement": "TGI", "setting": "UACC-62 melanoma", "result": 155, "unit": "nM"},
      {"measurement": "GI50", "setting": "K-562 leukemia", "result": 79.2, "unit": "nM"},
      {"measurement": "TGI", "setting": "K-562 leukemia", "result": "> 100000", "unit": "nM"}
    ]}
  ]
}
